Among the test systems are A549; HCT-15; HOP-92; IGROV-1; LOX IMVI; NCI-H460; RPMI-8226; SF-268; SF-295; SK-MEL-5; SN12C; SW-620; U-251; UO-31; NCI-H226.
Holding throughout (assay): DTP human tumour cell line panel, 48 h

The record followed here is ChEMBL document CHEMBL1201862, “PubChem BioAssay data set” (2004).

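Grown in 96-well plates, cells were treated for 48 hours with each compound at five concentrations. Insufficient inhibition: endpoint recorded as highest concentration tested. At the GI50, growth is halved.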 Activity calls are given as the source filed them. No stated cut-off is given here; in the data, active = GI50 up to about 1.1 µM and inactive = higher.

On to `O=C(O)CCNS(=O)(=O)c1ccc(NC(=O)c2ccccc2)cc1`, for which the GI50 (in general, the concentration giving 50% growth inhibition) with A549 is > 100 µM (inactive); in the test on HCT-15 it was greater than 100 µM; in the test with HOP-92, > 100 µM (inactive); with IGROV-1, > 100 µM (inactive); in the test with LOX IMVI, > 100 µM (inactive); in the test on NCI-H460 it was > 100 µM (inactive). The GI50 in the test on RPMI-8226, in the test with SF-268, with SF-295, in the test on SK-MEL-5, in the test on SN12C and in the test with SW-620 was > 100 µM (inactive) throughout. Moreover, the GI50 in the test on U-251 and with UO-31 was > 100 µM (inactive) each time.

Consider `CN(C)CCNC(=O)c1cccc2[nH]c(-c3cccnc3)nc12`, for which the GI50 was 19.8 µM (inactive) with A549; 24.8 µM in the test with HCT-15; 22.6 µM (inactive) in the test with HOP-92; 32.5 µM (inactive) in the test on IGROV-1; 18.1 µM (inactive) in the test with LOX IMVI; 22.4 µM (inactive) in the test on NCI-H226. Moreover, the GI50 was 19.3 µM (inactive) in the test on NCI-H460; 27.9 µM (inactive) with SF-268; 30.5 µM (inactive) with SF-295; 16.9 µM (inactive) in the test with SK-MEL-5; 18.2 µM (inactive) in the test with SN12C; 12.9 µM (inactive) in the test on SW-620. The GI50 in the test on U-251 is 22.6 µM (inactive); in the test with UO-31, 17.8 µM (inactive).

For the molecule `Cn1c(=O)c2c(nc3n2CCC(=O)N3)n(C)c1=O`, the GI50 in the test on A549, in the test on HOP-92, with IGROV-1, in the test with LOX IMVI, in the test on NCI-H226 and in the test on NCI-H460 was > 100 µM (inactive) each time. The GI50 with SF-268, with SF-295, with SK-MEL-5, in the test on SN12C, with SW-620 and in the test on U-251 was > 100 µM (inactive) in each case. In addition, in the test with UO-31, the GI50 was > 100 µM (inactive).

Consider `O=C1C2CC=CCC2C(=O)C12CCc1ccccc12` (centres undefined), for which the GI50 in the test on A549 was > 100 µM (inactive); with HCT-15, greater than 100 µM; with HOP-92 it was > 100 µM (inactive); in the test on IGROV-1, > 100 µM (inactive); in the test with LOX IMVI it was > 100 µM (inactive); in the test on NCI-H460, > 100 µM (inactive). Also, the GI50 in the test with SF-268, in the test on SF-295, in the test on SN12C, in the test on SW-620, with U-251 and in the test with UO-31 was > 100 µM (inactive) in each case.

With `CCOC(=O)NC(=O)c1cn(CCN2CCN(C(=O)CNC(=O)CNC(=O)Cn3cc(C(=O)NC(=O)OCC)c(=O)[nH]c3=O)CC2)c(=O)[nH]c1=O`, the GI50 was > 100 µM (inactive) in the test on A549; greater than 100 µM in the test on HCT-15; > 100 µM (inactive) in the test on HOP-92; > 100 µM (inactive) in the test with LOX IMVI; > 100 µM (inactive) in the test on NCI-H460; > 100 µM (inactive) in the test with SF-268. In addition, the GI50 in the test on SF-295, in the test with SN12C, in the test on SW-620, in the test with U-251 and in the test on UO-31 was > 100 µM (inactive) throughout.

On to `O=C(Cc1nc2ccccc2s1)NC12CC3CC(CC(C3)C1)C2`, for which the GI50 in the test on A549 was > 100 µM (inactive); in the test with HCT-15 it was greater than 100 µM; with HOP-92 it was > 100 µM (inactive); in the test on LOX IMVI, > 100 µM (inactive); in the test with NCI-H226, > 100 µM (inactive); in the test on NCI-H460, > 100 µM (inactive). Also, the GI50 in the test on SF-268, in the test on SF-295, in the test on SN12C, in the test on SW-620, in the test on U-251 and in the test with UO-31 was > 100 µM (inactive) in each case.

With `CCOC(=O)NC(=O)c1cn(C(CC)COC(=O)NCCCCCCNC(=O)OCC(CC)n2cc(C(=O)NC(=O)OCC)c(=O)[nH]c2=O)c(=O)[nH]c1=O` (centres undefined), the GI50 in the test on A549 was > 100 µM (inactive); in the test on HCT-15, greater than 100 µM; in the test with IGROV-1 it was > 100 µM (inactive); in the test with LOX IMVI it was > 100 µM (inactive); in the test on NCI-H226, > 100 µM (inactive); in the test with NCI-H460, > 100 µM (inactive). In addition, the GI50 in the test on RPMI-8226, in the test with SF-268, with SF-295, with SK-MEL-5, in the test on SN12C and in the test on SW-620 was > 100 µM (inactive) each time. The GI50 in the test with U-251 and in the test on UO-31 was > 100 µM (inactive) throughout.

As for `COc1ccc(CNc2cnc3ccc(N)cc3n2)cc1`, the GI50 in the test on A549 is > 100 µM (inactive); in the test on HCT-15 it was greater than 100 µM; with LOX IMVI, > 100 µM (inactive); in the test with NCI-H226, > 100 µM (inactive); with NCI-H460, > 100 µM (inactive); in the test on RPMI-8226, 81.8 µM (inactive). In addition, the GI50 with SF-268 was > 100 µM (inactive); in the test on SF-295, > 100 µM (inactive); in the test with SK-MEL-5 it was 35.3 µM (inactive); in the test on SN12C, > 100 µM (inactive); in the test with SW-620, > 100 µM (inactive); with UO-31, > 100 µM (inactive).

As to `OCC(O)C(O)C(O)c1nn(-c2ccc(F)cc2)c2nc3cc(Cl)c(Cl)cc3nc12` (centres undefined), the GI50 in the test on A549 is 13.3 µM (inactive); in the test with HCT-15 it was 53.3 µM; with IGROV-1 it was 21.9 µM (inactive); in the test on LOX IMVI, 18.3 µM (inactive); in the test on NCI-H226 it was 24.2 µM (inactive); in the test with NCI-H460, 25.5 µM (inactive). For the same molecule, the GI50 with RPMI-8226 is 36.4 µM (inactive); with SF-268 it was 16.9 µM (inactive); in the test with SF-295 it was 29.1 µM (inactive); in the test on SN12C it was 22.1 µM (inactive); in the test on SW-620, 26.4 µM (inactive); in the test with U-251, 29.8 µM (inactive). Besides, the GI50 in the test on UO-31 is 33.5 µM (inactive).

As to `COc1ccc2c(c1)C(=O)N1CCOC1C2C(=O)O` (centres undefined), the GI50 is > 100 µM (inactive) in the test on A549; greater than 100 µM in the test with HCT-15; > 100 µM (inactive) in the test with HOP-92; > 100 µM (inactive) in the test on IGROV-1; > 100 µM (inactive) in the test on LOX IMVI; > 100 µM (inactive) with NCI-H460. The GI50 was > 100 µM (inactive) with RPMI-8226; > 100 µM (inactive) with SF-268; 4.08 µM (inactive) with SF-295; > 100 µM (inactive) in the test with SK-MEL-5; > 100 µM (inactive) in the test on SN12C; > 100 µM (inactive) with SW-620. The GI50 in the test with U-251 and in the test on UO-31 was > 100 µM (inactive) throughout.

As to `NC1(CCCCCCCCCCC(=O)O)CNCCNCCNCCNC1`, the GI50 in the test on A549 is 57.5 µM (inactive); in the test with IGROV-1, 26.9 µM (inactive); in the test with NCI-H460, 26.6 µM (inactive); in the test on RPMI-8226, 37.4 µM (inactive); in the test with SF-268, > 100 µM (inactive); in the test with SF-295, > 100 µM (inactive). For the same molecule, the GI50 in the test on SK-MEL-5 is 38.9 µM (inactive); in the test on SN12C, 23.8 µM (inactive); with SW-620, 44.8 µM (inactive); in the test with UO-31, > 100 µM (inactive).
